This note sets out measurements from BindingDB's records for doi:10.1016/j.bmc.2020.115544 (Duquesne University, 2020).

A short description of assay [1]: Inhibition of GARFTase in human KB cells expressing RFC/FRalpha/PCFT assessed as reduction in cell growth after 96 hrs by Cell-Titer Blue assay.
The nature of assay [2]: Inhibition of GARFTase in human KB cells expressing RFC/FRalpha/PCFT assessed as reduction in cell growth after 96 hrs in presence of folic acid by Cell-Titer Blue assay.

SMILES strings stand for the structures. pIC50: −log10 of the molar value.

For orientation: pIC50 means the negative decadic logarithm of the IC50, by convention in mol/L.

`Nc1nc2[nH]c(CCNc3ccc(C(=O)N[C@@H](CCC(=O)O)C(=O)O)cc3)cc2c(=O)[nH]1`: the negative-log IC50 (pIC50) is 9.49 in assay [1] and 6.18 in assay [2].

As for `Nc1nc2[nH]c(CCCNc3ccc(C(=O)N[C@@H](CCC(=O)O)C(=O)O)cc3)cc2c(=O)[nH]1`, the negative logarithm of the IC50 (pIC50) is 9.02 in assay [1] and less than 6.00 in assay [2].

On to `Nc1nc2[nH]c(CCCOc3ccc(C(=O)N[C@@H](CCC(=O)O)C(=O)O)cc3)cc2c(=O)[nH]1`, for which the pIC50 in assay [1] is 8.60; in assay [2], less than 6.00.

Regarding `Nc1nc2[nH]c(CCCSc3ccc(C(=O)N[C@@H](CCC(=O)O)C(=O)O)cc3)cc2c(=O)[nH]1`, the pIC50 is 9.52 in assay [1] and 6.12 in assay [2].

Turning to `Nc1nc2[nH]c(CCCN(C=O)c3ccc(C(=O)N[C@@H](CCC(=O)O)C(=O)O)cc3)cc2c(=O)[nH]1`, the negative logarithm of the IC50 (pIC50) in assay [1] was 7.89; in assay [2], less than 6.00.

On to `Nc1nc2[nH]c(CCCN(C(=O)C(F)(F)F)c3ccc(C(=O)N[C@@H](CCC(=O)O)C(=O)O)cc3)cc2c(=O)[nH]1`, for which the negative-log IC50 (pIC50) is 8.27 in assay [1] and less than 6.00 in assay [2].

As to `CC(=O)N(CCCc1cc2c(=O)[nH]c(N)nc2[nH]1)c1ccc(C(=O)N[C@@H](CCC(=O)O)C(=O)O)cc1`, the pIC50 in assay [1] was 7.40; in assay [2], less than 6.00.
